Laboratory results reported in patent US10934303B2, “Aryl ethene derivative and pharmaceutical composition containing same as active ingredient” (priority 2016, dated 2021).
pIC50: −log10 of the molar value. Like-named read-outs stand apart in the source and are kept apart here.

Legend:
hERG channel = hERG channel (Homo sapiens (Human), UniProt Q12809); test: biochemical
ERRγ = format: cell-based; conditions: for Functional Assay at 10 μM (% of control), Cpds: 24 hours, AD293
[1] = 1 μM, 30 minutes, 37° C., NADPH
CYP2C19 = CYP2C19 (Homo sapiens (Human), UniProt P33261); test: Cytochrome P450 activity inhibition, CYP2C19; format: in vitro ADME; conditions: 10 μM, human liver microsomes, S-mephenytoin substrate
Description: (§1) 1) Cytochrome P450 (CYP450) Activity Inhibition Evaluation

[2] = 1 μM, 30 minutes, 37° C., NADPH; remark: listed apart in the source
CYP1A2 = CYP1A2 (Homo sapiens (Human), UniProt P05177); test: Cytochrome P450 activity inhibition, CYP1A2; format: in vitro ADME; conditions: 10 μM, human liver microsomes, Phenacetin substrate
Description: as §1

in vitro = in vitro ADME; parameters: Papp at 5 h: dose or concentration left out as unconfirmed; conditions: PAMPA, PBS pH 7.4, 25° C., read-out: Permeability Pampa
[3] = test system: CAL-62 anaplastic thyroid cancer cell line; format: cell-based
GST-bound ERR alpha LBD = GST-bound ERR alpha LBD (Homo sapiens (Human), UniProt P11474); conditions: TR-FRET, PGC1a coactivator; read-out: Binding Assay, IC50 ERRα
Description: (§2) The arylethene derivative of the present invention was sequentially added to a 384 well plate from a concentration of 10 μM to a final concentration of two-fold dilution. […] After all reagents were added, a reaction was carried out with gentle shaking at 20° C. for 1 hour, and after the reaction, a binding activity was measured by a TR-FRET method.

[4] = biological target: GST-bound ERR gamma ligand-binding domain (LBD) (Homo sapiens (Human), UniProt P62508); test: ERRγ binding assay (inverse agonist assay), TR-FRET; conditions: TR-FRET, PGC1a coactivator; read-out: Binding Assay, IC50 ERRγ
Description: 1) ERRγ Binding Assay (Inverse Agonist Assay)
as §2

[5] = biological target: GST-bound ER alpha ligand-binding domain (LBD) (Homo sapiens (Human), UniProt P03372); test: biochemical; conditions: TR-FRET, beta-estradiol 4 nM as agonist; read-out: Binding Assay, IC50 ERα
Description: as §2

CAL62 cells = test: Clonogenic assay with 131I; format: cell-based; conditions: CAL-62, combination with 131I
Description: The cells were plated in a 6-well plate, and allowed to stand for 24 hours. […] The cells were washed with cold bHBSS, and allowed to stand in a normalized culture medium for a time corresponding to six doublings. Finally, the cells were fixed in a 4% paraformaldehyde (PFA) solution and stained with 0.05% crystal violet.

in vivo = format: in vivo; conditions: rat
Description: An oral administration group fasts the day before.
Blood of each animal is collected at 0 hour.
Into a tail vein of an intravenous administration group (IV), a drug is injected at a dose of 1 mg/kg (syringe).
To an oral administration group (PO), a drug is orally administered at a dose of 10 mg/kg (oral zondec)
After administration, blood of the intravenous administration group was collected through a jugular vein 8 times at 0.08, 0.25, 0.5, 1, 2, 4, 6, and 8 hours. One collected blood amount is 400 to 500 ul.
After administration, blood of the oral administration group was collected through a jugular vein 6 times at 0.25, 0.5, 1, 4, 6 and 8 hours. One collected blood amount is 400 to 500 ul.
Supernatant plasma is collected by a centrifuge.
The supernatant plasma was injected into a LC-MS/MS system and the drug is analyzed.

CAL-62/effluc tumor = conditions: background statement; cited from earlier work
CYP3A4 = CYP3A4 (Homo sapiens (Human), UniProt P08684); test: Cytochrome P450 activity inhibition, CYP3A4; format: in vitro ADME; conditions: 10 μM, human liver microsomes, Midazolam substrate
Description: as §1

pERK1/2 = test: Western blot, phosphorylated ERK1/2 in CAL62 cells; format: cell-based; conditions: MEK inhibitor
ERRβ = ERRβ (Homo sapiens, UniProt O95718); conditions: TR-FRET, PGC1a coactivator; read-out: Binding Assay, IC50 ERRβ
Description: as §2

[6] = 1 μM, 30 minutes, 37° C., NADPH; remark: listed apart in the source
Description: 2) Microsomal Stability Evaluation
(§3) Four liver microsomes (Human, Dog, Rat, Mouse 0.5 mg/ml) with a 0.1 M phosphate buffer solution (pH 7.4), and the arylethene derivative of the present invention were added to a concentration of 1 μM, culturing was performed at 37° C. for 5 minutes in advance, a NADPH regeneration system solution was added thereto, and culturing was performed at 37° C. for 30 minutes. Thereafter, in order to complete the reaction, an acetonitrile solution containing an internal standard material (chlorpropamide) was added thereto, centrifugation (14,000 rpm, 4° C.) was performed for 5 minutes, and a supernatant was injected into a LC-MS/MS system to analyze the substrate drug, thereby evaluating metabolism stability to the arylethene derivative of the present invention.

CYP2C9 = CYP2C9 (Homo sapiens (Human), UniProt P11712); test: Cytochrome P450 activity inhibition, CYP2C9; format: in vitro ADME; conditions: 10 μM, human liver microsomes, Diclofenac substrate
Description: as §1

[7] = 1 μM, 30 minutes, 37° C., NADPH; remark: listed apart in the source
Description: 2) Microsomal Stability Evaluation
as §3

CYP2D6 = CYP2D6 (Homo sapiens (Human), UniProt P10635); test: Cytochrome P450 activity inhibition, CYP2D6; format: in vitro ADME; conditions: 10 μM, human liver microsomes, Dextromethorphan substrate
Description: as §1

[8] = activity relative to reference compound GSK5182, 10 μM

GST-bound ER alpha ligand-binding domain (LBD), sequence (P03372 whole entry, looked up, the tested form may be a part): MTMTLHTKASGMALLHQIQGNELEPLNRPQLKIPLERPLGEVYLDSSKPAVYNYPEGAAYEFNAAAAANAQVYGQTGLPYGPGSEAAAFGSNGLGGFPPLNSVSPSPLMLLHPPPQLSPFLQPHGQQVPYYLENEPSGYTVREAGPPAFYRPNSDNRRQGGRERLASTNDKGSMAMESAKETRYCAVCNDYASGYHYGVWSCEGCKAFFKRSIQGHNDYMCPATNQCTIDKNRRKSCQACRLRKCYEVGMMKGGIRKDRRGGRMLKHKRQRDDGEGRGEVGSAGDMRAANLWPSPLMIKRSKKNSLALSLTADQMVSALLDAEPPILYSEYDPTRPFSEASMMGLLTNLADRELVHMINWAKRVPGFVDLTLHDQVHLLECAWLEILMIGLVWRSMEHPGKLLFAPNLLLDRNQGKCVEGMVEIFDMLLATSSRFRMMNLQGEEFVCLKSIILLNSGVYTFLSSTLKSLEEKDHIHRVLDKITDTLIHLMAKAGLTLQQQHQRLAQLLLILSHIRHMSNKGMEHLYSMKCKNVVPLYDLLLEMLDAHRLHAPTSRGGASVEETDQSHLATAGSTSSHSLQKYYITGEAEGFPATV
GST-bound ERR gamma ligand-binding domain (LBD), sequence (P62508 233-457): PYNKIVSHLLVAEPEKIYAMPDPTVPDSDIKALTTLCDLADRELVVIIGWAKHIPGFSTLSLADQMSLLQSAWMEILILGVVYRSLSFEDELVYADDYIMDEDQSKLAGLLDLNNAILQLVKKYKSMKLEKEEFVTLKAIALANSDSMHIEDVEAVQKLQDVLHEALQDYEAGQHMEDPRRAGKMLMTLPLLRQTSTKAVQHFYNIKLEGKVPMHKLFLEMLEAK
GST-bound ERR alpha LBD, sequence (P11474 193-421): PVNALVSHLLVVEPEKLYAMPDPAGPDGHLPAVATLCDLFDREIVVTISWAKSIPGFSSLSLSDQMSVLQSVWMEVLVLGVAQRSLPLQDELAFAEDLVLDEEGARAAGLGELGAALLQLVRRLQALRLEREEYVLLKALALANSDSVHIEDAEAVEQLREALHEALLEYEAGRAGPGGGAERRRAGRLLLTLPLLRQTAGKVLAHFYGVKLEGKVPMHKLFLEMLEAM
CYP3A4, sequence (P08684 whole entry): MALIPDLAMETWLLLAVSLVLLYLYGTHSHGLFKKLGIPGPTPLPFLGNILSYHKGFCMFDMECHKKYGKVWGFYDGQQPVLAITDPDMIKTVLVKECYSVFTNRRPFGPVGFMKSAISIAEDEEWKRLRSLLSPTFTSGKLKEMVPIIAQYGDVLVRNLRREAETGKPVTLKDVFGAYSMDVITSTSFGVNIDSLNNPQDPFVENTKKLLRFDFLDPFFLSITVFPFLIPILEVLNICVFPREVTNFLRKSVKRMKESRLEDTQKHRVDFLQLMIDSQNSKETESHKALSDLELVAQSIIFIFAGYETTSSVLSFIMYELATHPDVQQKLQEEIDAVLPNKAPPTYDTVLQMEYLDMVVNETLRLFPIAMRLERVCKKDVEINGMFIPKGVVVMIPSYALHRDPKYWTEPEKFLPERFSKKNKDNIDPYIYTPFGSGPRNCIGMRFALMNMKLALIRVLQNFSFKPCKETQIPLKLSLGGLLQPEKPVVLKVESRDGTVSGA
CYP1A2, sequence (P05177 whole entry): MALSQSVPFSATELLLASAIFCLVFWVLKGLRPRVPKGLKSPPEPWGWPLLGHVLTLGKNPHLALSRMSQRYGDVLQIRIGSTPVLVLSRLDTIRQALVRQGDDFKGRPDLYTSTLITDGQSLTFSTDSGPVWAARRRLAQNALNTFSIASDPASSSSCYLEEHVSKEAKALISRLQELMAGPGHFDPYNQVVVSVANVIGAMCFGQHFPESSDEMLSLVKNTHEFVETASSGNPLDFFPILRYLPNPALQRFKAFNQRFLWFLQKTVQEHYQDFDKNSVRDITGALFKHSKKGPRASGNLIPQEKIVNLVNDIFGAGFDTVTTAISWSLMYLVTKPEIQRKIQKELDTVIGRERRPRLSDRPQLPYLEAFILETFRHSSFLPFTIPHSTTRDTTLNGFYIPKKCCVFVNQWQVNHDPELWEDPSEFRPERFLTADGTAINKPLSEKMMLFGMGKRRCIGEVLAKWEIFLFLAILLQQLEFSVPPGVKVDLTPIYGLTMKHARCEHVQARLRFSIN
CYP2C19, sequence (P33261 whole entry): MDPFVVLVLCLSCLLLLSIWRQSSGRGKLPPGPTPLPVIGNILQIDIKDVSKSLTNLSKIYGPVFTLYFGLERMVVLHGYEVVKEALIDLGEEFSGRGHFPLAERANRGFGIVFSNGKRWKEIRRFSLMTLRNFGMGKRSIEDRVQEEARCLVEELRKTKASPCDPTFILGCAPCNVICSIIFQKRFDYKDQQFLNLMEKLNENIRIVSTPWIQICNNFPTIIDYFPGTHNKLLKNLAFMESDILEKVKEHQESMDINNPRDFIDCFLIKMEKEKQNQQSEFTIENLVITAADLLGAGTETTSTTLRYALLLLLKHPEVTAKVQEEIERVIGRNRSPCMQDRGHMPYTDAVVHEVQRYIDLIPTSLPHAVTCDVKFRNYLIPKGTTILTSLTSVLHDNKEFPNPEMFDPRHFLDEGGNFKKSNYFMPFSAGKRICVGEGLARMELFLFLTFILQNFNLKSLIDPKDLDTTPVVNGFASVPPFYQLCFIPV
ERRβ, sequence (O95718 whole entry, looked up): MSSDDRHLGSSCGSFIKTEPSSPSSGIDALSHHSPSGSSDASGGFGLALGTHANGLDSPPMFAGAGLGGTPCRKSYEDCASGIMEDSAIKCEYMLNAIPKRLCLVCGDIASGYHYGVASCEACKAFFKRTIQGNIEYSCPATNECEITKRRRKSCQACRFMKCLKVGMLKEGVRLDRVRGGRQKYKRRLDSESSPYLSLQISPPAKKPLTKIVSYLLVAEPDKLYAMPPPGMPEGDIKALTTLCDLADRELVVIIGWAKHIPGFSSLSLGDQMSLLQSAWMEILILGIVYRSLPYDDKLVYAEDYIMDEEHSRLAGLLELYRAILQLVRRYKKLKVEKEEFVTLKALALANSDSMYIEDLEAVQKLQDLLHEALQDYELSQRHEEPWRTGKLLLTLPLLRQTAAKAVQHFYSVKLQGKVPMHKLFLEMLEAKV
CYP2D6, sequence (P10635 whole entry): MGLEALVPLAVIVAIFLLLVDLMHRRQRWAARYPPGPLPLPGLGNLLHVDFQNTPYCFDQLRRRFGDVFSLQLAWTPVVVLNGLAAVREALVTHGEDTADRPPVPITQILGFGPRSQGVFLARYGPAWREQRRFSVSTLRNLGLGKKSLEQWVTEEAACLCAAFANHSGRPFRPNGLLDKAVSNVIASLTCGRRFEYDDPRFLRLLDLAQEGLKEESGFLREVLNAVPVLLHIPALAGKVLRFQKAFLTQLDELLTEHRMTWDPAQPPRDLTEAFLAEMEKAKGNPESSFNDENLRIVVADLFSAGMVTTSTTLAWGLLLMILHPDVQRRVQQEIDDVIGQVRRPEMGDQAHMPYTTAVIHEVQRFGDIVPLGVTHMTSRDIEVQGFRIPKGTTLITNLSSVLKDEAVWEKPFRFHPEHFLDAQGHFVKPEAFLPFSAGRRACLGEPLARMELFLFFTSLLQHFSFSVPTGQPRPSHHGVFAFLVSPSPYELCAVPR
CYP2C9, sequence (P11712 whole entry): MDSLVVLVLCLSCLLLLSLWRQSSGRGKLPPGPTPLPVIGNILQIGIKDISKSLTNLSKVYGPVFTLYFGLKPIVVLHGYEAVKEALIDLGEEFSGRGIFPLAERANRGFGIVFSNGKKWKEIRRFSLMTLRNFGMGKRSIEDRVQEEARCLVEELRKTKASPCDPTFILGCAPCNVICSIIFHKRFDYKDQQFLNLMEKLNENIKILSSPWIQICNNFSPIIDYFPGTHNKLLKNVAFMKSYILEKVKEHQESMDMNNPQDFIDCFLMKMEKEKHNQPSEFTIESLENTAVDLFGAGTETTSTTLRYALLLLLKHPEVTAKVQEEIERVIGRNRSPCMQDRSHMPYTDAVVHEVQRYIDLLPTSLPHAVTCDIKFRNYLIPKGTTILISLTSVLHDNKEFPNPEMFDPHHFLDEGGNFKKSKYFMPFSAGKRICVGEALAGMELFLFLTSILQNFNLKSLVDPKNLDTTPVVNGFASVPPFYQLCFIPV

## CN1CCN(c2ccc(/C(=C(/CCCO)c3ccccc3)c3ccc(N)cc3)cc2)CC1 [Compound 26a, (Z)-5-(4-aminophenyl)-5-(4-(4-methylpiperazin-1-yl)phenyl)-4-phenylpent-4-en-1-ol]
hERG channel
  pIC50: < 4.52
ERRγ
  Functional Assay at 10 μM (% of control), Cpds: 2.66 % of control
ERRγ; [8]
  Functional Assay, Cpds/Ref 5182: 0.84
[1]
  MS(Microsomal Stability) (%) human: 72.3%
CYP2C19
  CYP inhibition (% of control) 2C19: 89 % of control
[2]
  MS(Microsomal Stability) (%) rat: 46.7%
CYP1A2
  CYP inhibition (% of control) 1A2: >100 % of control
In vitro
  Papp at 5 h: 1.58 ×10⁻⁶ cm/s

## [K+].[O-][Cl+3]([O-])([O-])[O-] [KClO4]
[3]; co-incubated with compound 18a-treated CAL62 cells, 300 μM KClO4
  block of radioactive iodine uptake increased in compound 18a-treated cells: completely blocks

## OCCC/C(=C(\c1ccc(O)cc1)c1ccc(OCCN2CC2)cc1)c1ccccc1 [Compound 6f]
hERG channel
  pIC50: < 4.52
ERRγ
  Functional Assay at 10 μM (% of control), Cpds: 6.75 % of control
ERRγ; [8]
  Functional Assay, Cpds/Ref 5182: 2.19
GST-bound ERR alpha LBD
  pIC50: < 5.00
[4]
  pIC50: 7.23
[5]
  pIC50: 6.53

## OCCC/C(=C(\c1ccc(O)cc1)c1ccc(OCCN2CCCCC2)cc1)c1ccccc1 [Compound 6d]
hERG channel
  pIC50: < 4.52
ERRγ
  Functional Assay, Cpds/Ref 5182: 1.69
  Functional Assay at 10 μM (% of control), Cpds: 5.2 % of control
GST-bound ERR alpha LBD
  pIC50: < 5.00
[4]
  pIC50: 7.03
[5]
  pIC50: 6.58

## CN(C)CCOc1ccc(/C(=C(/CCCO)c2ccccc2)c2ccc(O)cc2)cc1 [GSK5182, (Z)-4-(1-(4-(2-(dimethylamino)ethoxy)phenyl)-5-hydroxy-2-phenylpent-1-en-1-yl)phenol, reference compound]
CAL62 cells
  colony-formability, combining 131I and GSK5182: about 58.5±7.4%
In vivo; in vivo, IV, 1 mg/kg
  half-life: 2.3 h
In vivo; in vivo, IV, 1 mg/kg, read-out: Vss
  Vd: 9.1 L/kg
In vivo; in vivo, PO, 10 mg/kg, read-out: Cl(observed)/F
  CL/F: 134 mL/min/kg
In vivo; in vivo, PO, 10 mg/kg, read-out: Tmax
  Tmax: 1.9 h
In vivo; IV, 1 mg/kg
  AUCINF: 0.94 μMh
  AUCall: 0.89 μMh
  Cl(observed)/F: 44 mL/min/kg
In vivo; PO, 10 mg/kg
  AUCINF: 0.78 μMh
  AUCall: 0.68 μMh
  BA: 8.4%
In vivo; in vivo, po, 10 mg/kg
  Cmax: 130 nM
[1]
  MS(Microsomal Stability) (%) human: 42.8-45.1%
CAL-62/effluc tumor
  radioiodine uptake in the tumor, ATC mouse tumor model: not increased
CYP3A4
  CYP inhibition (% of control) 3A4: 83 % of control
[2]
  MS(Microsomal Stability) (%) rat: 26.0-29.1%
In vitro
  Papp at 5 h: 0.11 to 0.82 ×10⁻⁶ cm/s

## COc1cccc(-c2cc(=O)c3ccccc3o2)c1N [PD98059]
[3]
  inhibition of radioactive iodine uptake increase by compound 18a: completely inhibited
pERK1/2
  inhibition of relative increase of phosphorylated ERK1 and ERK2 by compound 18a: completely inhibited

## OCCC/C(=C(\c1ccc(O)cc1)c1ccc(OCCN2CC3CC3C2)cc1)c1ccccc1 (stereo not drawn) [Compound 38a, (Z)-4-(1-(4-(2-(3-azabicyclo[3.1.0]hexan-3-yl)ethoxy)phenyl)-5-hydroxy-2-phenylpent-1-en-1-yl)phenol]
hERG channel
  pIC50: 4.79
ERRγ
  Functional Assay at 10 μM (% of control), Cpds: 1.45 % of control
ERRγ; [8]
  Functional Assay, Cpds/Ref 5182: 1.42
GST-bound ERR alpha LBD
  pIC50: < 5.00
[4]
  pIC50: 7.10
[5]
  pIC50: 6.36
ERRβ
  pIC50: 5.09

## N#CC(=C(/N)Sc1ccccc1N)/C(C#N)=C(\N)Sc1ccccc1N [Compound U0126]
[3]; MEK inhibitor pre-incubation 30 minutes
  inhibition of radioactive iodine uptake increase by compound 18a: completely inhibited
pERK1/2
  inhibition of relative increase of phosphorylated ERK1 and ERK2 by compound 18a: completely inhibited

## Nc1ccc(/C(=C(\CCCO)c2ccccc2)c2ccc(C3CCN(C4CC4)CC3)cc2)cc1 [Compound 26d]
[6]
  MS(Microsomal Stability) (%) mouse: 38.3%
hERG channel
  pIC50: 4.59
[1]
  MS(Microsomal Stability) (%) human: 77.5%
CYP2C19
  CYP inhibition (% of control) 2C19: >100 % of control
CYP3A4
  CYP inhibition (% of control) 3A4: 57.3 % of control
[2]
  MS(Microsomal Stability) (%) rat: 72.2%
CYP1A2
  CYP inhibition (% of control) 1A2: >100 % of control
In vitro
  Papp at 5 h: 1.04 ×10⁻⁶ cm/s
CYP2C9
  CYP inhibition (% of control) 2C9: 96.6 % of control
[7]
  MS(Microsomal Stability) (%) dog: 51.5%
CYP2D6
  CYP inhibition (% of control) 2D6: 86.1 % of control
